Experimental data reported in US4599347A, “Tetrahydro-naphth (2.3-d) imidazole derivatives” (Hoffmann-La Roche Inc., priority 1980, dated 1986).
Counter-ions that a name gives are not always drawn. Like-named read-outs stand apart in the source and are kept apart here.

Experiments:
[1] = Preliminary toxicity in the mouse; conditions: in vivo, po, read-out: Prel. tox mouse
Procedure: Representative compounds of formula I of the invention were tested for their gastric acid secretion-inhibiting activity, for their anti-ulcer activity, as well as for their toxicity.
In Table I, which follows, the names of the compounds tested as well as the results of the testing for their gastric secretion-inhibiting activity, for their anti-ulcer activity and for their toxicity are given.

[2] = system: gastric acid secretion; test: Shay test (pylorus-ligated rats, gastric acid secretion-inhibiting activity); format: in vivo, rat; conditions: female rats, i.d.; for ED50: Rattus norvegicus, 4 h
Procedure: The two experimental procedures described hereinafter were used to determine the gastric acid secretion-inhibiting activity: Shay test The pylorus of female rats, which had received no food for 24 hours but which had received water ad libitum, is ligatured under slight ether narcosis in accordance with Shay et al. [Gastroenterology 5, 43 (1945)]. Immediately thereafter the substances to be tested are administered intraduodenally to the animals. Four (4) hours later the animals are killed. The volume and the acidity of their gastric juice are determined and the values obtained are compared with those of control animals which were treated similarly, but had received no test substance. The ED 50 is defined as the dosage of test substance which brings about a 50% reduction of volume or acidity of the gastric juice in the treated animals compared with the control animals.

[3] = system: acid secretion caused by 4-methylhistamine dihydrochloride; test: Heidenhain test (gastric pouch dogs, inhibition of 4-methylhistamine-stimulated acid secretion); format: in vivo, dog; conditions: 50% inhibition of acid secretion caused by 4-methylhistamine dihydrochloride infusion; for ED50: Canis lupus familiaris, po, read-out: Heidenhain test ED 50
Procedure: The two experimental procedures described hereinafter were used to determine the gastric acid secretion-inhibiting activity: Heidenhain test A part of the stomach fundus of female and male dogs is separated from the remaining stomach in the form of a pouch according to the […] technique [described by Rudick et al. in J. Surgical Research 7, 383-398 (1967)]. In the pouch there is fitted a steel cannula which is conducted externally through the abdominal wall. The secretion experiments are commenced after about 6 weeks. Before each experiment the animals receive no food for 18 hours, but receive water ad libitum. They are conscious during the experiment. A saphenous vein is cannulated for an infusion of 4-methylhistamine dihydrochloride, a selective stimulator of the histamine H2 -receptors. An appropriate infusion rate of the 4-methylhistamine dihydrochloride ([…], intravenously) is ascertained for each animal in preliminary experiments. During the entire main experiment the gastric secretion is stimulated by the infusion of 4-methylhistamine dihydrochloride, and 15 minute fractions of the gastric juice are collected continuously. As soon as volume and pH of these fractions show constant values, the test substances are administered orally. The ED 50 is defined as that dosage of test substance which brings about a 50% inhibition of the acid secretion caused by 4-methylhistamine dihydrochloride in the treated animals compared with the controls.

[4] = system: ulcers of the duodenum; test: Anti-ulcer activity (ulcers of the duodenum induced by 4-methylhistamine and carbachol in guinea pigs); format: in vivo, guinea pig; conditions: i.g.; for ED50: Cavia porcellus, po, read-out: Anti-ulcer ED 50
Procedure: Before the beginning of the testing a group of 10 guinea pigs, body weight 280 to 320 g, of the same sex receives no food for 24 hours, but receives water ad libitum. Various doses of the test substance or of the appropriate vehicle (control) are administered intragastrically. The test is repeated on different days with other groups of guinea pigs in order to avoid the influence of daily variations.

[5] = 50% reduction of acidity of gastric juice, read-out: Shay test ED 50 Acid
[6] = 50% reduction of volume of gastric juice, read-out: Shay test ED 50 Vol

Row | SMILES | LD50 [1] | ED50 [2, 5] | ED50 [2, 6] | ED50 [3] | ED50 [4] | Shay test ED 50 Acid ([2]; 4 hours, 50% reduction of acidity of gastric juice, dihydrochloride, 240 min) | Shay test ED 50 Vol ([2]; 4 hours, 50% reduction of volume of gastric juice, dihydrochloride, 240 min) | Heidenhain test ED 50 ([3]; p.o., dihydrochloride) | Anti-ulcer ED 50 ([4]; dihydrochloride)
1 | Cc1ccc(CSc2nc3cc4c(cc3[nH]2)CCC4)nc1.Cl.Cl [1,5,6,7-tetrahydro-2-[[(5-methyl-2-pyridyl)methyl]thio]indeno(5,6-d)imidazole dihydrochloride] | 1250 mg/kg | 28 mg/kg | 50 mg/kg | 3.6 mg/kg | 34 mg/kg | – | – | – | –
2 | CC1(C)C(=O)C(C)(C)c2cc3[nH]c(SCc4ccccn4)nc3cc21 [5,7-dihydro-5,5,7,7-tetramethyl-2-[(2-pyridylmethyl)thio]indeno(5,6-d)imidazol-6(1H)-one] | 2500 mg/kg | 9 mg/kg | 20 mg/kg | 5.5 mg/kg | 32 mg/kg | – | – | – | –
3 | c1ccc(CSc2nc3cc4c(cc3[nH]2)OCO4)nc1 [6-[(2-Pyridylmethyl)thio]-5H-1,3-dioxolo(4,5-f)-benzimidazole.2HCl] | 1250 mg/kg | 29 mg/kg | 35 mg/kg | 2.6 mg/kg | 17 mg/kg | – | – | – | –
4 | Cc1ccc(CSc2nc3cc4c(cc3[nH]2)OCO4)nc1 [6-[[(5-Methyl-2-pyridyl)-methyl]thio]-5H--1,3-dioxolo-(4,5-f)benzimidazole dihydrochloride] | – | – | – | – | – | 65 mg/kg | 75 mg/kg | 2.1 mg/kg | 25 mg/kg
5 | Cc1ccc(C[S+]([O-])c2nc3cc4c(cc3[nH]2)OCO4)nc1 (stereo not shown) [6-[[(5-methyl-2-pyridyl)methyl]sulfinyl]-5H-1,3-dioxolo(4,5-f)-benzimidazole] | 5000 mg/kg | 28 mg/kg | 65 mg/kg | 2.3 mg/kg | 14 mg/kg | – | – | – | –
6 | Cc1ccc(CSc2nc3cc4c(cc3[nH]2)OCO4)nc1 [6-[[(5-methyl-2-pyridyl)methyl]thio]-5H-1,3-dioxolo(4,5-f)benzimidazole] | – | 100 mg/kg | 100 mg/kg | 1.8 mg/kg | 18 mg/kg | – | – | – | –
